How the values were obtained:
[1] = test system: Human pulmonary artery EC; experiment: Transendothelial electrical resistance (TER) of HA-treated EC monolayers, Example 1; format: cell-based; details: 5 mM MβCD or 10 μg/ml anti-CD44 (IM-7) antibody, 100 nM High or Low MW HA
Procedure: (§1) Measurement of TransEC Electrical Resistance (TER)—EC were grown to confluence in polycarbonate wells containing evaporated gold microelectrodes. TER measurements were performed using an electrical cell-substrate impedance sensing system (Applied Biophysics, Troy, N.Y.) as described (Garcia et al., 2001). TER values from each microelectrode were pooled at discrete time points and plotted versus time as the mean±S.E.

[2] = test system: Human pulmonary artery EC; experiment: Cortical actin (phalloidin) staining and quantitation; format: cell-based; details: MβCD one hour prior to 100 nM High MW HA for 30 min
Procedure: Immunofluorescence Microscopy and Cortical Actin Quantitation—Polymerized actin rearrangement was assessed first with Texas Red-conjugated phalloidin (Invitrogen (Molecular Probes), Eugene, Oreg.) and then analyzed using a Nikon Eclipse TE 300 microscope as described (Garcia et al., 2001). ImageQuant™ software (Amersham Biosciences Corp. (Piscataway, N.J.)) was used to analyze the computer recorded .tiff images. A standardized average grey value (SAGV) was generated for total phalloidin staining versus cortical phalloidin staining for each cell (Singleton et al., 2005). The following equation was used to calculate percent cortical actin staining: ((cortical actin SAGV×area) divided by (total actin SAGV×area))×100. At least ten cells per sample were analyzed. Experiments were performed in triplicate.
Immunofluorescence Microscopy. EC were serum-starved for one hour prior to the addition of 100 nM high MW HA. EC were then fixed in 4% paraformaldehyde, permeablized with ethanol and incubated with specific protein or interest primary antibody for 30 min followed by either FITC or Texas Red-conjugated secondary (Invitrogen (Molecular Probes), Eugene, Oreg.) and analyzed using a Nikon Eclipse TE 300 microscope as described (Garcia et. al., 2001).

[3] = test system: Human pulmonary microvascular EC (HPMVEC); experiment: EC electrical resistance (TER), HGF; format: cell-based; details: 5 mM MβCD 30 min prior to 25 ng/ml HGF
Procedure: as §1, with “EC” for “TransEC”, “Resistance—EC” for “Resistance (TER)—EC”, “microelectrodes, and” for “microelectrodes.”, “obtained from Applied Biophysics (Troy,” for “(Applied Biophysics, Troy,”

[4] = test system: Rac1; experiment: Rac1 activation assay, HGF; format: cell-based, human; details: 5 mM MβCD prior to 25 ng/ml HGF
Procedure: Rac1 Activation Assay—Rac1 activity assays were performed as described (Ren et al., 1999) in human lung EC.

[5] = test system: Human pulmonary EC; experiment: TER, Example 5; format: cell-based; details: MβCD or IM-7 antibody
Procedure: (§2) Measurement of TransEC Electrical Resistance (TER). EC were grown to confluence in polycarbonate wells containing evaporated gold microelectrodes, and TER measurements performed using an electrical cell-substrate impedance sensing system (Applied Biophysics, Troy, N.Y.) as previously described (Garcia et al., 2001). TER values from each microelectrode were pooled at discrete time points and plotted versus time as the mean±S.E.

[6] = test system: Human pulmonary EC; experiment: TER, HABP2/C1INH regulation of EC barrier function (Examples 3 and 6); format: cell-based; details: purified C1INH; 1.0 μg/ml LPS, 100 nM HA, 10 μg/ml HABP2
Procedure: as §2, with “transendothelial monolayer electrical resistance” for “TransEC Electrical Resistance”, “obtained from Applied Biophysics (Troy,” for “(Applied Biophysics, Troy,”, “described in detail” for “described”, “al.” for “al.,”
Determination of EC barrier function. Human pulmonary endothelial cells were grown to confluence in polycarbonate wells containing evaporated gold microelectrodes (surface area, 10-3 cm^2) in series with a large gold counter electrode (1 cm^2) connected to a phase-sensitive lock-in amplifier as described previously. Measurements of transendothelial electrical resistance (TER) were performed using an electrical cell-substrate impedance sensing system (ECIS) (Applied BioPhysics Inc.). Briefly, current was applied across the electrodes by a 4,000-Hz AC voltage source with amplitude of 1 V in series with a 1 MS/resistance to approximate a constant current source (˜1 μA). The in-phase and out-of-phase voltages between the electrodes were monitored in real time with the lock-in amplifier and subsequently converted to scalar measurements of transendothelial impedance, of which resistance was the primary focus. TER was monitored for 30 minutes to establish a baseline resistance (R0) which, for pulmonary endothelium, was typically between 8 to 12×10^3Ω (wells with R0<7×10^3Ω were rejected). As cells adhere and spread out on the microelectrode, TER increases (maximal at confluence), whereas cell retraction, rounding, or loss of adhesion was reflected by a decrease in TER. These measurements provide a highly sensitive biophysical assay that indicates the state of cell shape and focal adhesion. Values from each microelectrode were pooled at discrete time points and plotted versus time as the mean±SE of the mean (Garcia et al., 2001).

[7] = target: T1, HABP2, murine (mouse lung) (mouse, UniProt Q8K0D2 24-558, limits assumed); experiment: anti-HABP2 immunoprecipitation of mouse lung homogenates, non-reducing SDS-PAGE, immunoblot
T1 construct: Immunoprecipitated with anti-HABP2 antibody from mouse lung homogenates; also called murine HABP2
T1 sequence (Q8K0D2 24-558 limits assumed): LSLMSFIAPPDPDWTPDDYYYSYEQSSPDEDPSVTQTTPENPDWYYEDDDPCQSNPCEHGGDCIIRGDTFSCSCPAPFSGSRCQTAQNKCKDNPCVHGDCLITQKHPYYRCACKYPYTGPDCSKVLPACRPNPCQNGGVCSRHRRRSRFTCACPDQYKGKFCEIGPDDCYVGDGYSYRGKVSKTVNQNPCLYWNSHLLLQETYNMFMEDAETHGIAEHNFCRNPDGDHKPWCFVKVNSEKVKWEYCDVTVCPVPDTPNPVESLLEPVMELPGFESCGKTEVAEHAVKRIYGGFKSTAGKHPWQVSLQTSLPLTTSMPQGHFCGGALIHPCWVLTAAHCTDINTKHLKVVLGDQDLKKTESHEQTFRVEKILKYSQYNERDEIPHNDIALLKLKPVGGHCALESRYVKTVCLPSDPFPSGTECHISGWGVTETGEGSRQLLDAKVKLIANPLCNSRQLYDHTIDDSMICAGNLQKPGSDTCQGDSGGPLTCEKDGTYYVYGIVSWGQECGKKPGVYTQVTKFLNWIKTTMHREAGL
Procedure: FIG. 24 Analysis of HABP2 and C1INH expression and complex formation in murine lungs with or without LPS treatment and effective silencing of HABP2 expression in murine lungs. Panel A—Male B6129N2 mice (8-10 weeks) were anesthetized with intraperitoneal ketamine (150 mg/kg) and acetylpromazine (15 mg/kg) before exposure of the right internal jugular vein via neck incision. LPS (2.5 mg/kg) or water (control) were instilled […]. The animals were allowed to recover for 24 hours after LPS before lung extraction. Extracted lungs were homogenized, N=6 samples per condition were pooled, run on SDS-PAGE and immunoblotted with anti-HABP2 (1), anti-C1INH (2) or anti-actin (3) antibody. Panel B—Homogenized lung samples as described in Panel A were immunoprecipitated with anti-HABP2 antibody, run on non-reducing SDS-PAGE and immunoblotted with either anti-HABP2 or anti-C1INH antibody. The upper arrow indicates an SDS-stable complex between HABP2 and C1INH. The lower arrow indicates the free (active) faun of HABP2. Panel C—Male B6129N2 mice (8-10 weeks) were anesthetized with intraperitoneal ketamine (150 mg/kg) and acetylpromazine (15 mg/kg) before exposure of the right internal jugular vein via neck incision. 10 mg/kg in vivo stable scramble siRNA (control) or HABP2 siRNA (Dharmacon) were instilled intravenously through the internal jugular vein. […]

[8] = target: T2, Tiam1 (human, UniProt Q13009 2-1591, limits assumed); experiment: immunoprecipitation of dynamin 2 from CEM fractions of human EC, immunoblot with anti-Tiam1
T2 construct: Endogenous protein in CEM fractions; also called T-lymphoma invasion and metastasis gene 1
T2 sequence (Q13009 2-1591 limits assumed): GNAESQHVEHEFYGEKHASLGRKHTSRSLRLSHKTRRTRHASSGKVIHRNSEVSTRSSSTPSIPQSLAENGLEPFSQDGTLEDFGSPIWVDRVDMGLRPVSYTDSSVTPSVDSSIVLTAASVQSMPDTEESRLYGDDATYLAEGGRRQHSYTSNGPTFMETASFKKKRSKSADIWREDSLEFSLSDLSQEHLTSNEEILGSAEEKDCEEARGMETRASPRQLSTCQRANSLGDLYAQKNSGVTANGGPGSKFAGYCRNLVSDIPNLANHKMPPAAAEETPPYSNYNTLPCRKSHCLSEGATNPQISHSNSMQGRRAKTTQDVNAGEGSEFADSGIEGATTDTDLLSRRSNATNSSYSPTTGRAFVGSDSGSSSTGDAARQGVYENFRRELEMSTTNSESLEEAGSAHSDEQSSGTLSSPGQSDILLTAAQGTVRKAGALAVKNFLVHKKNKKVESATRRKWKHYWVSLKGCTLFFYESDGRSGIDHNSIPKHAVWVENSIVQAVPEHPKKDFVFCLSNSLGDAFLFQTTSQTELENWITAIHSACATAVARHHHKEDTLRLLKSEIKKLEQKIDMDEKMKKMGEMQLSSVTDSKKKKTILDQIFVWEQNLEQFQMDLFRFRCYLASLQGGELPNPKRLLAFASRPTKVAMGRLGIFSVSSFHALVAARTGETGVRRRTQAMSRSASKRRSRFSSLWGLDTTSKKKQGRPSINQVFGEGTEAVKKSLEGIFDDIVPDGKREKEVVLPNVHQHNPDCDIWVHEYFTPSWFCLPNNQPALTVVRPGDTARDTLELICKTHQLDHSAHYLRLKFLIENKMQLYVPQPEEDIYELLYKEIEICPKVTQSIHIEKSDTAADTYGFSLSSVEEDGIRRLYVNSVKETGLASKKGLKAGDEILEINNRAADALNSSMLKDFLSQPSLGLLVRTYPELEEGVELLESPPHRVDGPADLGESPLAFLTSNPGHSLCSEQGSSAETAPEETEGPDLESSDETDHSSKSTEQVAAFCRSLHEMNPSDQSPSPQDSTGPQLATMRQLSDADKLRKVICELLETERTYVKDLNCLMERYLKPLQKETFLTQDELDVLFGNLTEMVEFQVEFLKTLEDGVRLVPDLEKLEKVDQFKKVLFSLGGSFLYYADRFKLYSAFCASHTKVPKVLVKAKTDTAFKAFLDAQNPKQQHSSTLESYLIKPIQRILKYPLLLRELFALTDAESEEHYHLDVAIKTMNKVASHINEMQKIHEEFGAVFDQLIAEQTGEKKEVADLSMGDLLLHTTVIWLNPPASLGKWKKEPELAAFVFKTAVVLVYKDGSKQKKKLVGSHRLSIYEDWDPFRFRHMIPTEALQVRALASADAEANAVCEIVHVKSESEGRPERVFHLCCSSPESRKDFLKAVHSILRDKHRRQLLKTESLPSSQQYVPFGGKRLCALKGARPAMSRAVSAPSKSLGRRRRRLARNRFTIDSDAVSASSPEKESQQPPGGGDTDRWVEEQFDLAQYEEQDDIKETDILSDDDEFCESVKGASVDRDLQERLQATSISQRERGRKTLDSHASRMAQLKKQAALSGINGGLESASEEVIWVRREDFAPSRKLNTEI
Procedure: Immunoprecipitation and Immunoblotting—Cellular materials from treated or untreated HPMVEC were incubated with IP buffer (50 mM HEPES (pH 7.5), 150 mM NaCl, 20 mM MgCl₂, 1% Nonidet P-40 (NP-40), 0.4 mM Na₃VO₄, 40 mM NaF, 50 μM okadaic acid, 0.2 mM phenylmethylsulfonyl fluoride, 1:250 dilution of Calbiochem protease inhibitor mixture 3). Following immunoprecipitation with either anti-CD44 or anti-dynamin 2 IgG, the samples were subjected to SDS-PAGE in 4-15% polyacrylamide gels, transferred onto Immobilon™ membranes, and developed with specific primary and secondary antibodies. Enhanced chemiluminescence (Amersham Biosciences) was used to visualize immunoreactive bands. In some instances, standardized average grey values (S.A.G.V., processed from ImageQuant™ software (Amersham Biosciences)) were obtained for immunoreactive bands for quantification.
Role of Tiam1, cortactin and dynamin 2 in HGF/c-Met-mediated human EC barrier enhancement. Since CD44 appears to regulate HGF-induced EC barrier enhancement (FIG. 12), whether Tiam1, cortactin and/or dynamin 2 were involved in HGF-induced increases in EC barrier integrity was examined. […] Silencing CD44 (siRNA) expression attenuated the HGF-induced recruitment of these molecules to CEM (FIG. 13-B); silencing either Tiam1 or dynamin 2 expression abolished cortactin localization to CEM (FIG. 14-A and -B). […]

methyl-β-cyclodextrin
inhibition of HA-induced changes in TER [1]: abolished both HMW- and LMW-HA-induced changes in TER | inhibition of HMW-HA induced cortical actin reorganization [2]: HMW-HA induced cortical actin reorganization was inhibited | inhibition of HGF-induced increases in EC barrier function (TER) [3]: attenuated HGF-induced increases in human EC barrier function | inhibition of HGF-induced Rac1 activation [4]: inhibited HGF-induced Rac1 activation | inhibition of effects of HA on TER [5]: effects of HA on TER were inhibited

B1: C1INH, murine (mouse lung) (other, UniProt P97290 23-504, looked up)
chain: DPEATSHSTQDPLEAQAKSRESFPERDDSWSPPEPTVLPSTWPTTSVAITITNDTMGKVANESFSQHSQPAAQLPTDSPGQPPLNSSSQPSTASDLPTQATTEPFCPEPLAQCSDSDRDSSEAKLSEALTDFSVKLYHAFSATKMAKTNMAFSPFSIASLLTQVLLGAGDSTKSNLESILSYPKDFACVHQALKGFSSKGVTSVSQIFHSPDLAIRDTYVNASQSLYGSSPRVLGPDSAANLELINTWVAENTNHKIRKLLDSLPSDTCLVLLNAVYLSAKWKITFEPKKMMAPFFYKNSMIKVPMMSSVKYPVAQFDDHTLKAKVGQLQLSHNLSFVIVVPVFPKHQLKDVEKALNPTVFKAIMKKLELSKFLPTYLTMPHIKVKSSQDMLSVMEKLEFFDFTYDLNLCGLTEDPDLQVSAMKHETVLELTESGVEAAAASAISFGRSLPIFEVQRPFLFLLWDQQHRFPVFMGRVYDPRG
notes: Detected with anti-C1INH antibody in anti-HABP2 immunoprecipitates of mouse lung homogenates
effect on EC barrier changes (TER) induced by LPS, LMW-HA, HABP2 and HMW-HA [6]: inhibited the EC barrier disrupting effects of LPS, LMW-HA and HABP2 while enhancing the barrier protective effects of HMW-HA | binding result [7]: binds

B2: dynamin 2 (other, human, UniProt P50570 1-870, looked up)
chain: MGNRGMEELIPLVNKLQDAFSSIGQSCHLDLPQIAVVGGQSAGKSSVLENFVGRDFLPRGSGIVTRRPLILQLIFSKTEHAEFLHCKSKKFTDFDEVRQEIEAETDRVTGTNKGISPVPINLRVYSPHVLNLTLIDLPGITKVPVGDQPPDIEYQIKDMILQFISRESSLILAVTPANMDLANSDALKLAKEVDPQGLRTIGVITKLDLMDEGTDARDVLENKLLPLRRGYIGVVNRSQKDIEGKKDIRAALAAERKFFLSHPAYRHMADRMGTPHLQKTLNQQLTNHIRESLPALRSKLQSQLLSLEKEVEEYKNFRPDDPTRKTKALLQMVQQFGVDFEKRIEGSGDQVDTLELSGGARINRIFHERFPFELVKMEFDEKDLRREISYAIKNIHGVRTGLFTPDLAFEAIVKKQVVKLKEPCLKCVDLVIQELINTVRQCTSKLSSYPRLREETERIVTTYIREREGRTKDQILLLIDIEQSYINTNHEDFIGFANAQQRSTQLNKKRAIPNQGEILVIRRGWLTINNISLMKGGSKEYWFVLTAESLSWYKDEEEKEKKYMLPLDNLKIRDVEKGFMSNKHVFAIFNTEQRNVYKDLRQIELACDSQEDVDSWKASFLRAGVYPEKDQAENEDGAQENTFSMDPQLERQVETIRNLVDSYVAIINKSIRDLMPKTIMHLMINNTKAFIHHELLAYLYSSADQSSLMEESADQAQRRDDMLRMYHALKEALNIIGDISTSTVSTPVPPPVDDTWLQSASSHSPTPQRRPVSSIHPPGRPPAVRGPTPGPPLIPVPVGAAASFSAPPIPSRPGPQSVFANSDLFPAPPQIPSRPVRIPPGIPPGVPSRRPPAAPSRPTIIRPAEPSLLD
notes: Immunoprecipitated with rabbit anti-dynamin 2 antibody from solubilized CEM fractions
binding result [8]: no binding

— US20100249064A1, “METHODS AND COMPOSITIONS FOR TREATING DISEASES AND CONDITIONS INVOLVING HIGHER MOLECULAR WEIGHT HYALURONAN” (University of Chicago, priority 2007, published 2010)
